Tests used:
[1] = Description: The nicotine solution used for nicotine treatment contains 0.05 milligram of nicotine (free base) per milliliter of solution ([…]). The active mesh nebulizer activates the active mesh for a single inhalation period of 3 seconds (0.05 minute) to deliver the dose of nicotine to the patient.
The nicotine solution used for nicotine treatment contains 0.5 milligram of nicotine (free base) per milliliter of solution (0.5 mg/ml). The active mesh nebulizer activates the active mesh for a single inhalation period of 3 seconds (0.05 minute) to deliver the dose of nicotine to the patient.
The nicotine solution used for nicotine treatment contains 0.01 milligram of nicotine (free base) per milliliter of solution (0.01 mg/ml). The active mesh nebulizer activates the active mesh for a single inhalation period of 3 seconds (0.05 minute) to deliver the dose of nicotine to the patient.
The hypothetical patient receives the nicotine dose at a regular interval (e.g., about every 2 hours) for a weight monitoring period (e.g., about 2 months in the present hypothetical example), after which the hypothetical patient is weighed to determine the effect of the nebulized nicotine solution on the hypothetical patient's weight.

Remark: listed apart in the source

CN1CCCC1c1cccnc1 (stereo not shown) [nicotine]
management of nicotine cravings ([1]; Example 1: patient, 2-pack per day smoker, 0.0005 mg dose (0.2 ml/min, 0.05 mg/ml, 3 seconds) by inhalation approximately every two hours): sufficient to manage nicotine cravings
patient's weight versus weight when smoking cigarettes ([1]; Example 1: patient, 2-pack per day smoker, 0.0005 mg dose by inhalation approximately every two hours): holding the patient's weight at the same level as when the patient was smoking cigarettes
lethargy, or lassitude ([1]; Example 2: patient, 2-pack per day smoker, 0.005 mg dose (0.2 ml/min, 0.5 mg/ml, 3 seconds) by inhalation): sufficiently large to produce lethargy, or lassitude
effect on patient's weight ([1]; Example 3: hypothetical patient, 0.01 mg/ml solution, 0.2 ml/min, 3 seconds, about every 2 hours for about 2 months): has lost weight
period with no desire for further nicotine inhalation (0.5 mg nicotine/ml (0.05%), single inhalation plume, 0.2 ml/minute for 10 seconds, according to theory and belief): 2 to 3 h
period of nicotine satiety (no desire for further nicotine inhalation) (1/40 mg nicotine/ml (0.025% nicotine), 0.2 ml/min, nebulization time 10 seconds, according to theory and belief): at least two hours
time to brain response (in vivo): less than 10 seconds

— patent US20210170122A1, “METHOD OF WEIGHT REGULATION USING NEBULIZED NICOTINE” (priority 2016, published 2021)
